Measured values from ChEMBL document CHEMBL3217422, “Design of membrane targeting tobramycin-based cationic amphiphiles with reduced hemolytic activity” (Medchemcomm, 2013).
In brackets after ≈: the same amount, converted by molar mass.

What was measured:
Staphylococcus aureus [1] = test: Antibacterial activity against Staphylococcus aureus ATCC 9144 assessed as growth inhibition after 24 hrs by double dilution method; format: functional; conditions: ATCC 9144, 24 h
Pseudomonas aeruginosa = test: Antibacterial activity against Pseudomonas aeruginosa ATCC 33347 assessed as growth inhibition after 24 hrs by double dilution method; format: functional; conditions: ATCC 33347, 24 h
[2] = test system: Staphylococcus epidermidis; test: Antibacterial activity against Staphylococcus epidermidis ATCC 35984 assessed as growth inhibition after 24 hrs by double dilution method; format: functional; conditions: ATCC 35984, 24 h
[3] = test system: Staphylococcus epidermidis; test: Antibacterial activity against Staphylococcus epidermidis ATCC 35984 assessed as biofilm growth inhibition after 24 hrs by double dilution method; format: functional
[4] = test system: Streptococcus pyogenes serotype M12; test: Ratio of tobramycin MIC to compound MIC against Streptococcus pyogenes serotype M12 strain MGAS9429 after 24 hrs by double dilution method; format: functional
Shigella sonnei [5] = test: Antibacterial activity against O-antigen negative Shigella sonnei clinical isolate 6831 assessed as growth inhibition after 24 hrs by double dilution method; format: functional; conditions: isolate 6831, 24 h
[6] = Induction of hemolysis in rat RBC assessed as hemoglobin release at 64 ug/ml after 1 hr by microplate reader analysis; format: cell-based, Erythrocyte; conditions: red blood cells, read-out: Activity
[7] = test system: Staphylococcus epidermidis; test: Antibacterial activity against Staphylococcus epidermidis ATCC 12228 assessed as growth inhibition after 24 hrs by double dilution method; format: functional; conditions: ATCC 12228, 24 h
[8] = Induction of hemolysis in rat RBC assessed as hemoglobin release at 32 ug/ml after 1 hr by microplate reader analysis; format: cell-based, Erythrocyte; conditions: red blood cells, read-out: Activity
Staphylococcus aureus [9] = test: Antibacterial activity against Methicillin-resistant Staphylococcus aureus assessed as growth inhibition after 24 hrs by double dilution method; format: functional
Enterococcus = test: Antibacterial activity against vancomycin-resistant Enterococcus assessed as growth inhibition after 24 hrs by double dilution method; format: functional
Shigella sonnei [10] = test: Antibacterial activity against O-antigen positive Shigella sonnei clinical isolate 6831 assessed as growth inhibition after 24 hrs by double dilution method; format: functional; conditions: isolate 6831, 24 h
Streptococcus mutans [11] = test: Antibacterial activity against Streptococcus mutans UA159 assessed as growth inhibition after 24 hrs by double dilution method; format: functional; conditions: UA159, 24 h
[12] = Antibacterial activity against Streptococcus pyogenes serotype M12 strain MGAS9429 assessed as growth inhibition after 24 hrs by double dilution method; format: functional; conditions: MGAS9429, 24 h
Streptococcus mutans [13] = test: Antibacterial activity against Streptococcus mutans UA159 assessed as biofilm growth inhibition after 24 hrs by double dilution method; format: functional
Enterococcus faecalis = test: Antibacterial activity against Enterococcus faecalis ATCC 29212 assessed as growth inhibition after 24 hrs by double dilution method; format: functional; conditions: ATCC 29212, 24 h
[14] = Induction of hemolysis in rat RBC assessed as hemoglobin release at 128 ug/ml after 1 hr by microplate reader analysis; format: cell-based, Erythrocyte; conditions: red blood cells, read-out: Activity

| SMILES | MIC (Staphylococcus aureus [1]) [µg/mL] | MIC (Pseudomonas aeruginosa) [µg/mL] | MIC [2] [µg/mL] | MBIC [3] [µg/mL] | Ratio [4] | MIC (Shigella sonnei [5]) [µg/mL] | hemolysis at 1 h, 64 ug/ml [6] [%] | MIC [7] [µg/mL] | hemolysis at 1 h, 32 ug/ml [8] [%] | MIC (Staphylococcus aureus [9]) [µg/mL] | MIC (Enterococcus) [µg/mL] | MIC (Shigella sonnei [10]) [µg/mL] | MIC (Streptococcus mutans [11]) [µg/mL] | MIC [12] [µg/mL] | MBIC (Streptococcus mutans [13]) [µg/mL] | MIC (Enterococcus faecalis) [µg/mL] | hemolysis at 1 h, 128 ug/ml [14] [%] |
| --- | --- | --- | --- | --- | --- | --- | --- | --- | --- | --- | --- | --- | --- | --- | --- | --- | --- |
| CCCCCCCCCCCCCCc1cn(C[C@H]2O[C@H](O[C@@H]3[C@@H](O)[C@H](O[C@H]4O[C@H](CN)[C@@H](O)C[C@H]4N)[C@@H](N)C[C@H]3N)[C@H](O)[C@@H](N)[C@@H]2O)nn1 | 8 (≈ 11.2 µM) | 128 (≈ 179 µM) | 8 (≈ 11.2 µM) | 16 | 16 | 32 (≈ 44.8 µM) | 74.4 | 4 (≈ 5.59 µM) | 23 | 64 (≈ 89.5 µM) | 32 (≈ 44.8 µM) | 32 (≈ 44.8 µM) | 4 (≈ 5.59 µM) | 4 (≈ 5.59 µM) | 4 | 128 (≈ 179 µM) |  |
| CCCCCCCCCCCCC(=O)NC[C@H]1O[C@H](O[C@@H]2[C@@H](O)[C@H](O[C@H]3O[C@H](CN)[C@@H](O)C[C@H]3N)[C@@H](N)C[C@H]2N)[C@H](O)[C@@H](N)[C@@H]1O | 16 (≈ 24.1 µM) | 32 (≈ 48.3 µM) | 8 (≈ 12.1 µM) | 8 |  | 128 (≈ 193 µM) | 0 | 8 (≈ 12.1 µM) |  | 128 (≈ 193 µM) | 64 (≈ 96.5 µM) | 128 (≈ 193 µM) | 4 (≈ 6.03 µM) | 16 (≈ 24.1 µM) | 8 | 128 (≈ 193 µM) | 10.2 |
| CCCCCCCCCCCCCCCCS(=O)(=O)C[C@H]1O[C@H](O[C@@H]2[C@@H](O)[C@H](O[C@H]3O[C@H](CN)[C@@H](O)C[C@H]3N)[C@@H](N)C[C@H]2N)[C@H](O)[C@@H](N)[C@@H]1O | 8 (≈ 10.8 µM) | > 128 | 16 (≈ 21.6 µM) |  |  | 128 (≈ 173 µM) | 37.9 | 16 (≈ 21.6 µM) |  | 32 (≈ 43.2 µM) | 32 (≈ 43.2 µM) | 32 (≈ 43.2 µM) | 8 (≈ 10.8 µM) | 8 (≈ 10.8 µM) |  | 64 (≈ 86.5 µM) |  |
| CCCCCCCCCCCCCCC(=O)NC[C@H]1O[C@H](O[C@@H]2[C@@H](O)[C@H](O[C@H]3O[C@H](CN)[C@@H](O)C[C@H]3N)[C@@H](N)C[C@H]2N)[C@H](O)[C@@H](N)[C@@H]1O | 8 (≈ 11.6 µM) | 128 (≈ 185 µM) | 4 (≈ 5.79 µM) | 8 | 16 | 32 (≈ 46.3 µM) | 74.4 | 4 (≈ 5.79 µM) | 23 | 32 (≈ 46.3 µM) | 32 (≈ 46.3 µM) | 16 (≈ 23.2 µM) | 4 (≈ 5.79 µM) | 4 (≈ 5.79 µM) | 4 | 64 (≈ 92.6 µM) |  |
| NC[C@H]1O[C@H](O[C@H]2[C@H](O)[C@@H](O[C@H]3O[C@H](CO)[C@@H](O)[C@H](N)[C@H]3O)[C@H](N)C[C@@H]2N)[C@H](N)C[C@@H]1O [TOBRAMYCIN] | 16 (≈ 34.2 µM) | > 128 | 128 (≈ 274 µM) | 128 |  | 32 (≈ 68.4 µM) |  | < 1 |  | > 128 | > 128 | 16 (≈ 34.2 µM) | 128 (≈ 274 µM) | 64 (≈ 137 µM) | 64 | > 128 |  |
| CCCCCCCCCCCCSC[C@H]1O[C@H](O[C@@H]2[C@@H](O)[C@H](O[C@H]3O[C@H](CN)[C@@H](O)C[C@H]3N)[C@@H](N)C[C@H]2N)[C@H](O)[C@@H](N)[C@@H]1O | 16 (≈ 24.5 µM) | 128 (≈ 196 µM) | 8 (≈ 12.3 µM) | 16 |  | 64 (≈ 98.2 µM) |  | 8 (≈ 12.3 µM) |  | 64 (≈ 98.2 µM) | 64 (≈ 98.2 µM) | 32 (≈ 49.1 µM) | 8 (≈ 12.3 µM) | 8 (≈ 12.3 µM) | 4 | 128 (≈ 196 µM) | 71.6 |
| CCCCCCCCCCCCCCSC[C@H]1O[C@H](O[C@@H]2[C@@H](O)[C@H](O[C@H]3O[C@H](CN)[C@@H](O)C[C@H]3N)[C@@H](N)C[C@H]2N)[C@H](O)[C@@H](N)[C@@H]1O | 8 (≈ 11.8 µM) | 128 (≈ 188 µM) | 4 (≈ 5.88 µM) | 8 | 16 | 32 (≈ 47.1 µM) | 74.4 | 4 (≈ 5.88 µM) | 23 | 32 (≈ 47.1 µM) | 16 (≈ 23.5 µM) | 16 (≈ 23.5 µM) | 2 (≈ 2.94 µM) | 2 (≈ 2.94 µM) | 4 | 64 (≈ 94.1 µM) |  |
